In ChEMBL document CHEMBL2311510, “A new single-photon emission computed tomography (SPECT) imaging agent for serotonin transporters: [(125)I]Flip-IDAM, (2-((2-((dimethylamino)methyl)-4-iodophenyl)thio)phenyl)methanol” (Bioorg Med Chem Lett, 2013):

Experiments:
[1] = tested on: Blood; experiment: Biodistribution in Sprague-Dawley rat blood assessed as compound level per organ at 11 uCi, iv measured 30 mins post compound dose; assay type: ADME, organism-based; conditions: in vivo, 0.5 h
[2] = tested on: Bone; experiment: Biodistribution in Sprague-Dawley rat bone assessed as compound level per organ at 11 uCi, iv measured 2 mins post compound dose; assay type: ADME, organism-based, Bone element; conditions: in vivo
[3] = tested on: Liver; experiment: Biodistribution in Sprague-Dawley rat liver assessed as compound level per organ at 11 uCi, iv measured 2 mins post compound dose; assay type: ADME, organism-based; conditions: in vivo
[4] = tested on: Kidney; experiment: Biodistribution in Sprague-Dawley rat kidney assessed as compound level per organ at 11 uCi, iv measured 2 mins post compound dose; assay type: ADME, organism-based; conditions: in vivo
[5] = tested on: Nucleic Acid; experiment: Ratio of drug level in rest of brain region to cerebellum in Sprague-Dawley rat at 11 uCi, iv measured 120 mins post compound dose; assay type: ADME, organism-based; conditions: in vivo, 2 h
[6] = tested on: Nucleic Acid; experiment: Ratio of drug level in cortex to cerebellum in Sprague-Dawley rat at 11 uCi, iv measured 60 mins post compound dose; assay type: ADME, organism-based; conditions: in vivo, 1 h
[7] = tested on: Nucleic Acid; experiment: Ratio of drug level in hypothalamus to cerebellum in Sprague-Dawley rat at 11 uCi, iv measured 30 mins post compound dose; assay type: ADME, organism-based; conditions: in vivo, 0.5 h
[8] = tested on: Nucleic Acid; experiment: Ratio of drug level in rest of brain region to cerebellum in Sprague-Dawley rat at 11 uCi, iv measured 30 mins post compound dose; assay type: ADME, organism-based; conditions: in vivo, 0.5 h
[9] = tested on: Nucleic Acid; experiment: Ratio of drug level in hypothalamus to cerebellum in Sprague-Dawley rat at 11 uCi, iv measured 2 mins post compound dose; assay type: ADME, organism-based; conditions: in vivo
[10] = tested on: Nucleic Acid; experiment: Ratio of drug level in striatum to cerebellum in Sprague-Dawley rat at 11 uCi, iv measured 30 mins post compound dose; assay type: ADME, organism-based; conditions: in vivo, 0.5 h
[11] = tested on: Nucleic Acid; experiment: Ratio of drug level in rest of brain region to cerebellum in Sprague-Dawley rat at 11 uCi, iv measured 2 mins post compound dose; assay type: ADME, organism-based; conditions: in vivo
[12] = tested on: Nucleic Acid; experiment: Ratio of drug level in cortex to cerebellum in Sprague-Dawley rat at 11 uCi, iv measured 2 mins post compound dose; assay type: ADME, organism-based; conditions: in vivo
[13] = tested on: Hypothalamus; experiment: Biodistribution in Sprague-Dawley rat hypothalamus at 11 uCi, iv measured 120 mins post compound dose; assay type: ADME, organism-based; conditions: in vivo, 2 h
[14] = tested on: Hippocampus; experiment: Biodistribution in Sprague-Dawley rat hippocampus at 11 uCi, iv measured 120 mins post compound dose; assay type: ADME, organism-based; conditions: in vivo, 2 h
[15] = tested on: Cerebellum; experiment: Biodistribution in Sprague-Dawley rat cerebellum at 11 uCi, iv measured 120 mins post compound dose; assay type: ADME, organism-based; conditions: in vivo, 2 h
[16] = tested on: Brain; experiment: Biodistribution in Sprague-Dawley rat rest of brain at 11 uCi, iv measured 60 mins post compound dose; assay type: ADME, organism-based; conditions: in vivo, 1 h
[17] = tested on: Hypothalamus; experiment: Biodistribution in Sprague-Dawley rat hypothalamus at 11 uCi, iv measured 60 mins post compound dose; assay type: ADME, organism-based; conditions: in vivo, 1 h
[18] = tested on: Striatum; experiment: Biodistribution in Sprague-Dawley rat striatum at 11 uCi, iv measured 60 mins post compound dose; assay type: ADME, organism-based; conditions: in vivo, 1 h
[19] = tested on: Cerebellum; experiment: Biodistribution in Sprague-Dawley rat cerebellum at 11 uCi, iv measured 60 mins post compound dose; assay type: ADME, organism-based; conditions: in vivo, 1 h
[20] = tested on: Brain; experiment: Biodistribution in Sprague-Dawley rat rest of brain at 11 uCi, iv measured 30 mins post compound dose; assay type: ADME, organism-based; conditions: in vivo, 0.5 h
[21] = tested on: Cerebellum; experiment: Biodistribution in Sprague-Dawley rat cerebellum at 11 uCi, iv measured 30 mins post compound dose; assay type: ADME, organism-based; conditions: in vivo, 0.5 h
[22] = tested on: Hippocampus; experiment: Biodistribution in Sprague-Dawley rat hippocampus at 11 uCi, iv measured 2 mins post compound dose; assay type: ADME, organism-based; conditions: in vivo
[23] = tested on: Cerebellum; experiment: Biodistribution in Sprague-Dawley rat cerebellum at 11 uCi, iv measured 2 mins post compound dose; assay type: ADME, organism-based; conditions: in vivo
[24] = tested on: Bone; experiment: Biodistribution in Sprague-Dawley rat bone at 11 uCi, iv measured 120 mins post compound dose; assay type: ADME, organism-based, Bone element; conditions: in vivo, 2 h
[25] = tested on: Liver; experiment: Biodistribution in Sprague-Dawley rat liver at 11 uCi, iv measured 120 mins post compound dose; assay type: ADME, organism-based; conditions: in vivo, 2 h
[26] = tested on: Pancreas; experiment: Biodistribution in Sprague-Dawley rat pancreas at 11 uCi, iv measured 120 mins post compound dose; assay type: ADME, organism-based; conditions: in vivo, 2 h
[27] = tested on: Lung; experiment: Biodistribution in Sprague-Dawley rat lung at 11 uCi, iv measured 120 mins post compound dose; assay type: ADME, organism-based; conditions: in vivo, 2 h
[28] = tested on: Blood; experiment: Biodistribution in Sprague-Dawley rat blood at 11 uCi, iv measured 120 mins post compound dose; assay type: ADME, organism-based; conditions: in vivo, 2 h
[29] = tested on: Bone; experiment: Biodistribution in Sprague-Dawley rat bone at 11 uCi, iv measured 60 mins post compound dose; assay type: ADME, organism-based, Bone element; conditions: in vivo, 1 h
[30] = tested on: Zone of skin; experiment: Biodistribution in Sprague-Dawley rat skin at 11 uCi, iv measured 60 mins post compound dose; assay type: ADME, organism-based; conditions: in vivo, 1 h
[31] = tested on: Pancreas; experiment: Biodistribution in Sprague-Dawley rat pancreas at 11 uCi, iv measured 60 mins post compound dose; assay type: ADME, organism-based; conditions: in vivo, 1 h
[32] = tested on: Lung; experiment: Biodistribution in Sprague-Dawley rat lung at 11 uCi, iv measured 60 mins post compound dose; assay type: ADME, organism-based; conditions: in vivo, 1 h
[33] = tested on: Bone; experiment: Biodistribution in Sprague-Dawley rat bone at 11 uCi, iv measured 30 mins post compound dose; assay type: ADME, organism-based, Bone element; conditions: in vivo, 0.5 h
[34] = tested on: Zone of skin; experiment: Biodistribution in Sprague-Dawley rat skin at 11 uCi, iv measured 30 mins post compound dose; assay type: ADME, organism-based; conditions: in vivo, 0.5 h
[35] = tested on: Heart; experiment: Biodistribution in Sprague-Dawley rat heart at 11 uCi, iv measured 30 mins post compound dose; assay type: ADME, organism-based; conditions: in vivo, 0.5 h
[36] = tested on: Bone; experiment: Biodistribution in Sprague-Dawley rat bone at 11 uCi, iv measured 2 mins post compound dose; assay type: ADME, organism-based, Bone element; conditions: in vivo
[37] = tested on: Brain; experiment: Biodistribution in Sprague-Dawley rat brain at 11 uCi, iv measured 2 mins post compound dose; assay type: ADME, organism-based; conditions: in vivo
[38] = tested on: Liver; experiment: Biodistribution in Sprague-Dawley rat liver at 11 uCi, iv measured 2 mins post compound dose; assay type: ADME, organism-based; conditions: in vivo
[39] = tested on: Zone of skin; experiment: Biodistribution in Sprague-Dawley rat skin at 11 uCi, iv measured 2 mins post compound dose; assay type: ADME, organism-based; conditions: in vivo
[40] = tested on: Spleen; experiment: Biodistribution in Sprague-Dawley rat spleen at 11 uCi, iv measured 2 mins post compound dose; assay type: ADME, organism-based; conditions: in vivo
[41] = tested on: Pancreas; experiment: Biodistribution in Sprague-Dawley rat pancreas at 11 uCi, iv measured 2 mins post compound dose; assay type: ADME, organism-based; conditions: in vivo
[42] = tested on: Kidney; experiment: Biodistribution in Sprague-Dawley rat kidney at 11 uCi, iv measured 2 mins post compound dose; assay type: ADME, organism-based; conditions: in vivo
[43] = tested on: Muscle tissue; experiment: Biodistribution in Sprague-Dawley rat muscle at 11 uCi, iv measured 2 mins post compound dose; assay type: ADME, organism-based; conditions: in vivo
[44] = tested on: Brain; experiment: Biodistribution in Sprague-Dawley rat brain assessed as compound level per organ at 11 uCi, iv measured 120 mins post compound dose; assay type: ADME, organism-based; conditions: in vivo, 2 h
[45] = tested on: Heart; experiment: Biodistribution in Sprague-Dawley rat heart assessed as compound level per organ at 11 uCi, iv measured 120 mins post compound dose; assay type: ADME, organism-based; conditions: in vivo, 2 h
[46] = tested on: Bone; experiment: Biodistribution in Sprague-Dawley rat bone assessed as compound level per organ at 11 uCi, iv measured 60 mins post compound dose; assay type: ADME, organism-based, Bone element; conditions: in vivo, 1 h
[47] = tested on: Brain; experiment: Biodistribution in Sprague-Dawley rat brain assessed as compound level per organ at 11 uCi, iv measured 60 mins post compound dose; assay type: ADME, organism-based; conditions: in vivo, 1 h
[48] = tested on: Liver; experiment: Biodistribution in Sprague-Dawley rat liver assessed as compound level per organ at 11 uCi, iv measured 60 mins post compound dose; assay type: ADME, organism-based; conditions: in vivo, 1 h
[49] = tested on: Pancreas; experiment: Biodistribution in Sprague-Dawley rat pancreas assessed as compound level per organ at 11 uCi, iv measured 60 mins post compound dose; assay type: ADME, organism-based; conditions: in vivo, 1 h
[50] = tested on: Bone; experiment: Biodistribution in Sprague-Dawley rat bone assessed as compound level per organ at 11 uCi, iv measured 30 mins post compound dose; assay type: ADME, organism-based, Bone element; conditions: in vivo, 0.5 h
[51] = tested on: Liver; experiment: Biodistribution in Sprague-Dawley rat liver assessed as compound level per organ at 11 uCi, iv measured 30 mins post compound dose; assay type: ADME, organism-based; conditions: in vivo, 0.5 h
[52] = tested on: Kidney; experiment: Biodistribution in Sprague-Dawley rat kidney assessed as compound level per organ at 11 uCi, iv measured 30 mins post compound dose; assay type: ADME, organism-based; conditions: in vivo, 0.5 h

CN(C)Cc1cc([125I])ccc1Sc1ccccc1CO
Drug uptake [1]: 5.07 %ID
Drug uptake [2]: 0.03 %ID
Drug uptake [3]: 9.42 %ID
Drug uptake [4]: 4.61 %ID
Ratio [5]: 1.18
Ratio [6]: 1.69
Ratio [7]: 4.01
Ratio [8]: 2.22
Ratio [9]: 1.02
Ratio [10]: 3.13
Ratio [11]: 0.75
Ratio [12]: 0.92
Drug uptake [13]: 0.1 % ID/g
Drug uptake [14]: 0.08 % ID/g
Drug uptake [15]: 0.05 % ID/g
Drug uptake [16]: 0.13 % ID/g
Drug uptake [17]: 0.32 % ID/g
Drug uptake [18]: 0.25 % ID/g
Drug uptake [19]: 0.12 % ID/g
Drug uptake [20]: 0.55 % ID/g
Drug uptake [21]: 0.25 % ID/g
Drug uptake [22]: 1.28 % ID/g
Drug uptake [23]: 1.5 % ID/g
Drug uptake [24]: 0.16 % ID/g
Drug uptake [25]: 0.41 % ID/g
Drug uptake [26]: 0.16 % ID/g
Drug uptake [27]: 0.27 % ID/g
Drug uptake [28]: 0.19 % ID/g
Drug uptake [29]: 0.23 % ID/g
Drug uptake [30]: 0.2 % ID/g
Drug uptake [31]: 0.28 % ID/g
Drug uptake [32]: 0.42 % ID/g
Drug uptake [33]: 0.4 % ID/g
Drug uptake [34]: 0.31 % ID/g
Drug uptake [35]: 0.38 % ID/g
Drug uptake [36]: 0.6 % ID/g
Drug uptake [37]: 1.21 % ID/g
Drug uptake [38]: 1.23 % ID/g
Drug uptake [39]: 0.28 % ID/g
Drug uptake [40]: 1.61 % ID/g
Drug uptake [41]: 1.52 % ID/g
Drug uptake [42]: 2.6 % ID/g
Drug uptake [43]: 0.26 % ID/g
Drug uptake [44]: 0.13 %ID
Drug uptake [45]: 0.12 %ID
Drug uptake [46]: 0.01 %ID
Drug uptake [47]: 0.31 %ID
Drug uptake [48]: 3.8 %ID
Drug uptake [49]: 0.1 %ID
Drug uptake [50]: 0.02 %ID
Drug uptake [51]: 9.09 %ID
Drug uptake [52]: 2.66 %ID
